What all share (assay): NCI-60 cell line screen, 48 h
Assay [1] deals with M14.
Assay [2] relates to OVCAR-5.
Assay [3] relates to A549.
For assay [4], the system named is UO-31.
The test system of assay [5] is SK-MEL-2.
In assay [6] the test system is SF-295.
Assay [7] concerns SR.
Assay [8] deals with HCT-15.
For assay [9], the system named is 786-0.
Assay [10] relates to NCI-H226.
The subject of assay [11] is HCC 2998.
Assay [12] deals with NCI-H460.
The subject of assay [13] is SF-268.
Assay [14] has as its system COLO 205.
Assay [15] deals with UACC-62.
In assay [16] the test system is Malme-3M.
Assay [17] relates to SNB-75.
Assay [18] deals with HOP-92.

We go through twelve molecules from ChEMBL document CHEMBL1201862, “PubChem BioAssay data set” (2004).

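Step 1: Grow cells in 96-well plates. Step 2: Expose to compound for 48 hours at 5 concentrations. Step 3: Interpolate endpoints linearly; if unreached, use highest concentration. Abbreviation: GI50, concentration required for 50% inhibition of growth.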 Active and inactive are the calls of the source. Cut-off read from the data, not from the text of the source: active = GI50 up to about 1.1 µM and inactive = higher.

For `COc1cc2c(c(OC)c1OC)-c1ccc(SC)c(=O)cc1[C@@H](NC(=O)c1ccc([N+](=O)[O-])cc1)CC2`, the GI50 in assay [1] was < 0.0025 µM (active); in [2], 0.00485 µM (active); in assay [3], 0.025 µM (active); in [4], 0.00579 µM (active); in assay [5], 0.0045 µM (active); in assay [6] it was < 0.0025 µM (active). Also, the GI50 in [7] was 0.00522 µM (active); in [8], 0.00843 µM; in [9] it was 0.00528 µM (active); in assay [10], < 0.01 µM (active); in [11] it was 0.00588 µM (active); in assay [12] it was 0.00327 µM (active). Further, the GI50 in assay [13] was 0.0154 µM (active); in assay [14] it was < 0.0025 µM (active); in assay [15], 0.00853 µM (active); in assay [16], < 0.0025 µM (active); in [17], 10.7 µM (inactive); in assay [18], < 0.0025 µM (active).

As to `O=C(/C=C/c1cccc([N+](=O)[O-])c1)c1cccnc1`, the GI50 in [1] is 13.7 µM (inactive); in [2], > 100 µM (inactive); in assay [3] it was > 60 µM (inactive); in assay [4], > 45.1 µM (inactive); in [5], > 100 µM (inactive); in assay [6], 46 µM (inactive). Also, the GI50 in assay [7] was 22.7 µM (inactive); in assay [8], 43.5 µM; in [9], 16.5 µM (inactive); in assay [10], > 52.6 µM (inactive); in assay [11], 36.5 µM (inactive); in [12] it was 50.7 µM (inactive). The GI50 was 33.3 µM (inactive) in assay [13]; 35.6 µM (inactive) in assay [14]; 30.2 µM (inactive) in [15]; > 89.9 µM (inactive) in assay [16]; > 52.8 µM (inactive) in [17]; 74 µM (inactive) in assay [18].

In the case of `O=C(NC1CCC[C@H]1OC(=O)c1ccccc1)c1ccccc1` (stereo partly drawn), the GI50 in assay [1] is > 100 µM (inactive); in assay [2] it was > 100 µM (inactive); in [3] it was 40.4 µM (inactive); in assay [4], 16.1 µM (inactive); in assay [5] it was > 100 µM (inactive); in assay [6] it was > 100 µM (inactive). Further, the GI50 in assay [7] was 47.2 µM (inactive); in [9] it was > 100 µM (inactive); in assay [10], 13.7 µM (inactive); in assay [12], > 100 µM (inactive); in [13] it was 86.5 µM (inactive); in [15], 50.9 µM (inactive). In addition, the GI50 in assay [16] is 0.0489 µM (active); in [17], 10.7 µM (inactive); in assay [18], 25.6 µM (inactive).

Turning to `Cc1cc(O)nc(NNC(C#N)c2ccc([N+](=O)[O-])cc2)n1` (stereo not drawn), the GI50 is > 100 µM (inactive) in assay [1]; > 100 µM (inactive) in assay [2]; > 100 µM (inactive) in [3]; 47.5 µM (inactive) in assay [4]; > 100 µM (inactive) in assay [5]; > 100 µM (inactive) in assay [6]. The GI50 in assay [7] was 26.3 µM (inactive); in assay [8], more than 100 µM; in [9], > 100 µM (inactive); in assay [10], > 100 µM (inactive); in assay [12], > 100 µM (inactive); in assay [13], > 100 µM (inactive). Besides, the GI50 in [14] was > 100 µM (inactive); in [15], > 100 µM (inactive); in assay [16] it was 70.1 µM (inactive); in [17] it was 34.8 µM (inactive); in [18] it was > 100 µM (inactive).

For the molecule `Nc1c(Cl)ncnc1NCCCCCCCCCCCCNc1ncnc(Cl)c1N`, the GI50 in assay [1] is 3.19 µM (inactive); in [2], < 0.01 µM (active); in [3] it was 2.07 µM (inactive); in assay [4] it was 1.05 µM (active); in assay [5], 2.35 µM (inactive); in [6] it was 1.01 µM (active). Moreover, the GI50 was 0.147 µM (active) in assay [7]; 1.88 µM in [8]; 2.86 µM (inactive) in assay [9]; 3.72 µM (inactive) in assay [11]; 1.9 µM (inactive) in assay [12]; 2.3 µM (inactive) in [13]. The GI50 in assay [14] is 8.24 µM (inactive); in [15] it was 2.05 µM (inactive); in assay [16] it was 1.94 µM (inactive); in assay [17], 1.28 µM (inactive); in assay [18], 1.32 µM (inactive).

As for `C=Cc1ccc(C)[n+](C[Si](C)(C)O[Si](C)(C)C[n+]2cc(C=C)ccc2C)c1`, the GI50 in [1] is > 100 µM (inactive); in assay [2], > 100 µM (inactive); in assay [3], 71.8 µM (inactive); in [4], > 100 µM (inactive); in assay [5] it was > 100 µM (inactive); in assay [6] it was > 100 µM (inactive). In addition, the GI50 in assay [7], in assay [9], in assay [10], in assay [11], in [12] and in assay [13] was > 100 µM (inactive) throughout. Further, the GI50 in [14], in assay [15], in assay [16], in assay [17] and in assay [18] was > 100 µM (inactive) throughout.

`CCN(CC)CCNC(=O)c1ccccc1Nc1c(Cl)cccc1Cl`: the GI50 in [1] is 18.1 µM (inactive); in assay [2], 7.55 µM (inactive); in assay [3], 17 µM (inactive); in assay [4], 9.95 µM (inactive); in [7], 13 µM (inactive); in [8], 12.6 µM. Besides, the GI50 in [9] was 6.34 µM (inactive); in assay [10], 17.8 µM (inactive); in assay [11], 6.82 µM (inactive); in [12], 4.39 µM (inactive); in [13], 18.2 µM (inactive); in assay [14], 12.9 µM (inactive). For the same molecule, the GI50 in assay [15] is 17.1 µM (inactive); in assay [17], 11.2 µM (inactive).

With `O=C1NC(=O)C2C1N(Cc1ccccc1)C(=O)N2Cc1ccccc1` (stereo not drawn), the GI50 in [1], in assay [2], in [3], in assay [4], in [6] and in assay [7] was > 100 µM (inactive) throughout. Moreover, the GI50 in [8] was more than 100 µM; in assay [9], > 100 µM (inactive); in assay [10], > 100 µM (inactive); in assay [11], > 100 µM (inactive); in assay [12], > 100 µM (inactive); in assay [13], > 100 µM (inactive). In addition, the GI50 in assay [14], in [15], in [16], in [17] and in assay [18] was > 100 µM (inactive) each time.

Turning to `COc1ccc2c(c1)[n+]([O-])c(-c1ccc([N+](=O)[O-])cc1)c(N)[n+]2[O-]`, the GI50 in assay [1] was > 100 µM (inactive); in assay [2] it was > 100 µM (inactive); in assay [3], 70.8 µM (inactive); in assay [4] it was > 100 µM (inactive); in assay [5] it was 80.4 µM (inactive); in [6], > 100 µM (inactive). Besides, the GI50 was 18.7 µM (inactive) in [7]; > 100 µM (inactive) in assay [9]; > 100 µM (inactive) in assay [10]; 49.5 µM (inactive) in assay [12]; 78.2 µM (inactive) in assay [13]; 47.4 µM (inactive) in assay [14]. For the same molecule, the GI50 in [16], in [17] and in assay [18] was > 100 µM (inactive) throughout.

Regarding `Cn1cnc([N+](=O)[O-])c1Sc1nc2cccnc2s1`, the GI50 in assay [1] is 13.7 µM (inactive); in assay [2] it was 47.2 µM (inactive); in [3], 34 µM (inactive); in assay [4], 17.1 µM (inactive); in assay [6], > 100 µM (inactive); in assay [7], 16 µM (inactive). Further, the GI50 is 11.6 µM in [8]; 14.5 µM (inactive) in assay [9]; 17.1 µM (inactive) in [10]; 16.7 µM (inactive) in assay [11]; 34.1 µM (inactive) in assay [12]; 28.8 µM (inactive) in [13]. Besides, the GI50 in assay [14] is 10.3 µM (inactive); in assay [15], 17.5 µM (inactive); in [16], 10.1 µM (inactive); in [17] it was 25.2 µM (inactive); in assay [18] it was 18.5 µM (inactive).

In the case of `COC[C@@H](/N=C/N1CCc2cc(OC)c(OC)cc2[C@@H]1C)C(C)(C)C`, the GI50 in assay [1] is > 100 µM (inactive); in assay [3], > 100 µM (inactive); in assay [4], > 100 µM (inactive); in [5] it was 86.7 µM (inactive); in [6], > 100 µM (inactive); in assay [7], > 100 µM (inactive). The GI50 is more than 100 µM in assay [8]; > 100 µM (inactive) in assay [9]; > 100 µM (inactive) in assay [10]; > 100 µM (inactive) in assay [12]; > 100 µM (inactive) in assay [13]; > 100 µM (inactive) in assay [14]. In addition, the GI50 in assay [15], in assay [16], in assay [17] and in assay [18] was > 100 µM (inactive) in each case.

`N#CC(C#N)=Cc1cccc(Oc2ccccc2)c1`: the GI50 in [1] was 19.6 µM (inactive); in assay [2], > 67.1 µM (inactive); in [3], 70.3 µM (inactive); in [4], 15.9 µM (inactive); in assay [5], 21.2 µM (inactive); in [6], 20.2 µM (inactive). The GI50 was 8.93 µM (inactive) in assay [7]; 35.1 µM in assay [8]; 18.6 µM (inactive) in [9]; 33 µM (inactive) in [10]; 28.4 µM (inactive) in assay [11]; 25.5 µM (inactive) in assay [12]. The GI50 in assay [13] was 19.1 µM (inactive); in [14], 29 µM (inactive); in [15], 22.3 µM (inactive); in assay [16], 20.1 µM (inactive); in assay [17], 29.2 µM (inactive).
